Reference: patent publication US8247211B2, “Glycopeptide antibiotics” (American Cyanamid Company, priority 2001, dated 2012)
≈ marks a conversion by molar mass, not a printed value.

Tests used:
[1] = system: Staphylococcus aureus-SMITH (GC 4543); test: Acute lethal infection in mice (ED50); format: in vivo; conditions: female CD-1 mice, intraperitoneal challenge, intravenous dose 30 min. after infection, 7 day survival ratios
Method in brief: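 IP bacterial challenge, female CD-1 mice; inoculum lethal to untreated controls in 24-48 hr. IV dosing in saline or 5% dextrose 30 min post-infection, 5 mice/dose. ED50 from 7-day survival, 3 tests pooled.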

[2] = system: Staphylococcus sp.; test: In vitro antibacterial evaluation: minimum inhibitory concentration (MIC), broth dilution method; format: cell-based; conditions: for MIC Staphylococcus aureus (ATCC 29213) / MIC Staphylococcus aureus (GC 1131) / MIC Staphylococcus aureus (GC 3051) / MIC Staphylococcus aureus (GC 3053) / MIC Staphylococcus aureus (GC 4541) / MIC Staphylococcus aureus (GC 4542) / MIC Staphylococcus aureus (GC 4544) / MIC Staphylococcus aureus (GC 4545): broth dilution, 18 hours at 35° C.
Method in brief: (§1)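 MIC by broth dilution in Mueller-Hinton II medium following NCCLS M7-A2. Inoculum was 5×10^5 CFU/mL and antibiotic was tested over 64-0.06 μg/mL. Gram-positive panel included clinical isolates resistant to methicillin, penicillin and/or vancomycin.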

[3] = system: Escherichia coli; test: as above; format: cell-based
Method in brief: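 Values are minimum inhibitory concentrations, meaning the smallest antibiotic concentration that stops growth of the organism. They come from broth dilution in Muller-Hinton II […] per NCCLS guidance (M7-A2), using 5×10^5 CFU/mL and concentrations from 64 to 0.06 μg/mL.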

[4] = system: Streptococcus sp.; test: as above; format: cell-based
Method in brief: as §1

[5] = system: Enterococcus sp.; test: as above; format: cell-based
Method in brief: as §1

[6] = broth dilution, inoculum 5×10^5 CFU/mL, 18 hours at 35° C.

COc1ccc(Oc2cccc(C3OCC4OC(OC5C(CO)OC(Oc6ccc(CC7NC(=O)C(C(C)c8ccccc8)NC(=O)CNC(=O)C(CO)NC(=O)C(C(O)C8CNC(=N)N8C8OC(CO)C(O)C(O)C8O)NC(=O)C(C(O)C8CNC(=N)N8)NC7=O)cc6)C(O)C5O)C(O)C(O)C4O3)c2)cc1 (stereo not shown) [Example 180]
median effective dose (ED50), Staphylococcus aureus-SMITH (GC 4543) [1]: 0.05 mg/kg | MIC Staphylococcus aureus (ATCC 29213) ([2]; 5×10^5 CFU/mL): 2 µg/mL (≈ 1.33 µM) | MIC Staphylococcus aureus (GC 1131) ([2]; 5×10^5 CFU/mL): 2 µg/mL (≈ 1.33 µM) | MIC Staphylococcus aureus (GC 3051) ([2]; 5×10^5 CFU/mL): 1 µg/mL (≈ 0.664 µM) | MIC Staphylococcus aureus (GC 3053) ([2]; 5×10^5 CFU/mL): 2 µg/mL (≈ 1.33 µM) | MIC Staphylococcus aureus (GC 4541) ([2]; 5×10^5 CFU/mL): 2 µg/mL (≈ 1.33 µM) | MIC Staphylococcus aureus (GC 4542) ([2]; 5×10^5 CFU/mL): 2 µg/mL (≈ 1.33 µM) | MIC Staphylococcus aureus (GC 4544) ([2]; 5×10^5 CFU/mL): 2 µg/mL (≈ 1.33 µM) | MIC Staphylococcus aureus (GC 4545) ([2]; 5×10^5 CFU/mL): 2 µg/mL (≈ 1.33 µM) | MIC Staphylococcus aureus (ATCC 29213) ([2]; strain ATCC 29213): 2 µg/mL (≈ 1.33 µM) | MIC Staphylococcus aureus (GC 1131) ([2]; strain GC 1131): 2 µg/mL (≈ 1.33 µM) | MIC Staphylococcus aureus (GC 3051) ([2]; strain GC 3051): 1 µg/mL (≈ 0.664 µM) | MIC Staphylococcus aureus (GC 3053) ([2]; strain GC 3053): 2 µg/mL (≈ 1.33 µM) | MIC Staphylococcus aureus (GC 4541) ([2]; strain GC 4541): 2 µg/mL (≈ 1.33 µM) | MIC Staphylococcus aureus (GC 4542) ([2]; strain GC 4542): 2 µg/mL (≈ 1.33 µM) | MIC Staphylococcus aureus-SMITH (GC 4543) ([2]; strain GC 4543): 2 µg/mL (≈ 1.33 µM) | MIC Staphylococcus aureus (GC 4544) ([2]; strain GC 4544): 2 µg/mL (≈ 1.33 µM) | MIC Staphylococcus aureus (GC 4545) ([2]; strain GC 4545): 2 µg/mL (≈ 1.33 µM) | MIC Staphylococcus haemolyticus (GC 4546) ([2]; strain GC 4546): 2 µg/mL (≈ 1.33 µM) | MIC Coagulase Negative Staphylococcus (GC 4547) ([2]; strain GC 4547): 2 µg/mL (≈ 1.33 µM) | MIC Coagulase Negative Staphylococcus (GC 4548) ([2]; strain GC 4548): 1 µg/mL (≈ 0.664 µM) | MIC Coagulase Negative Staphylococcus (GC 4549) ([2]; strain GC 4549): 1 µg/mL (≈ 0.664 µM) | MIC Coagulase Negative Staphylococcus (GC 4551) ([2]; strain GC 4551): 1 µg/mL (≈ 0.664 µM) | MIC Coagulase Negative Staphylococcus (GC 6257) ([2]; strain GC 6257): 0.5 µg/mL (≈ 0.332 µM) | MIC Escherichia coli (ATCC 25922) ([3]; strain ATCC 25922): >64 µg/mL | MIC Escherichia coli (GC 4559) ([3]; strain GC 4559): 64 µg/mL (≈ 42.5 µM) | MIC Escherichi coli (GC 4560) ([3]; strain GC 4560): 2 µg/mL (≈ 1.33 µM) | MIC Streptococcus agalactiae (GC 4564) [4, 6]: <0.06 µg/mL | MIC Streptococcus pneumoniae (ATCC 6301) [4, 6]: <0.06 µg/mL | MIC Streptococcus pneumoniae (GC 1894) [4, 6]: <0.06 µg/mL | MIC Streptococcus pneumoniae (GC 4565) [4, 6]: <0.06 µg/mL | MIC Streptococcus pyogenes (GC 4563) [4, 6]: <0.06 µg/mL | MIC Streptococcus pneumoniae (ATCC 6301) ([4]; strain ATCC 6301): <0.06 µg/mL | MIC Streptococcus pneumoniae (GC 1894) ([4]; strain GC 1894): <0.06 µg/mL | MIC Streptococcus pyogenes (GC 4563) ([4]; strain GC 4563): <0.06 µg/mL | MIC Streptococcus agalactiae (GC 4564) ([4]; strain GC 4564): <0.06 µg/mL | MIC Streptococcus pneumoniae (GC 4565) ([4]; strain GC 4565): <0.06 µg/mL | MIC Enterococcus avium (GC 4558) [5, 6]: 2 µg/mL (≈ 1.33 µM) | MIC Enterococcus faecalis (ATCC 29212) [5, 6]: 4 µg/mL (≈ 2.66 µM) | MIC Enterococcus faecalis (GC 2242) [5, 6]: 4 µg/mL (≈ 2.66 µM) | MIC Enterococcus faecalis (GC 2691) [5, 6]: 2 µg/mL (≈ 1.33 µM) | MIC Enterococcus faecalis (GC 3059) [5, 6]: 2 µg/mL (≈ 1.33 µM) | MIC Enterococcus faecalis (GC 4552) [5, 6]: 2 µg/mL (≈ 1.33 µM) | MIC Enterococcus faecalis (GC 4553) [5, 6]: 2 µg/mL (≈ 1.33 µM) | MIC Enterococcus faecalis (GC 4554) [5, 6]: 2 µg/mL (≈ 1.33 µM) | MIC Enterococcus faecalis (GC 6189) [5, 6]: 2 µg/mL (≈ 1.33 µM) | MIC Enterococcus faecium (GC 2243) [5, 6]: 2 µg/mL (≈ 1.33 µM) | MIC Enterococcus faecium (GC 4556) [5, 6]: 2 µg/mL (≈ 1.33 µM) | MIC Enterococcus faecium (GC 4557) [5, 6]: 2 µg/mL (≈ 1.33 µM) | MIC Enterococcus faecalis (ATCC 29212) ([5]; strain ATCC 29212): 4 µg/mL (≈ 2.66 µM) | MIC Enterococcus faecalis (GC 2242) ([5]; strain GC 2242): 4 µg/mL (≈ 2.66 µM) | MIC Enterococcus faecium (GC 2243) ([5]; strain GC 2243): 2 µg/mL (≈ 1.33 µM) | MIC Enterococcus faecalis (GC 2691) ([5]; strain GC 2691): 2 µg/mL (≈ 1.33 µM) | MIC Enterococcus faecalis (GC 3059) ([5]; strain GC 3059): 2 µg/mL (≈ 1.33 µM) | MIC Enterococcus faecalis (GC 4552) ([5]; strain GC 4552): 2 µg/mL (≈ 1.33 µM) | MIC Enterococcus faecalis (GC 4553) ([5]; strain GC 4553): 2 µg/mL (≈ 1.33 µM) | MIC Enterococcus faecalis (GC 4554) ([5]; strain GC 4554): 2 µg/mL (≈ 1.33 µM) | MIC Enterococcus faecium (GC 4556) ([5]; strain GC 4556): 2 µg/mL (≈ 1.33 µM) | MIC Enterococcus faecium (GC 4557) ([5]; strain GC 4557): 2 µg/mL (≈ 1.33 µM) | MIC Enterococcus avium (GC 4558) ([5]; strain GC 4558): 2 µg/mL (≈ 1.33 µM) | MIC Enterococcus faecalis (GC 6189) ([5]; strain GC 6189): 2 µg/mL (≈ 1.33 µM)
